# pEC50: −log10 of the molar value. Active and inactive are the calls of the source.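 The calls were made as follows: active = fitted half-maximal concentration for changing reporter fluorescence at or below a set limit; inactive = the rest.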
# Target: Citrate synthase, peroxisomal (Saccharomyces cerevisiae (strain ATCC 204508 / S288c)) (UniProt P08679)
# Assay: yeast TOR pathway CIT2-GFP reporter potency – flow cytometry, MLPCN hits, dose response (AID 2744)
# Conditions: S. cerevisiae CIT2-GFP strain, 3 h, at 33 µM (top of the series)
# Sequence of Citrate synthase, peroxisomal (Saccharomyces cerevisiae (strain ATCC 204508 / S288c)) (P08679 whole entry, looked up): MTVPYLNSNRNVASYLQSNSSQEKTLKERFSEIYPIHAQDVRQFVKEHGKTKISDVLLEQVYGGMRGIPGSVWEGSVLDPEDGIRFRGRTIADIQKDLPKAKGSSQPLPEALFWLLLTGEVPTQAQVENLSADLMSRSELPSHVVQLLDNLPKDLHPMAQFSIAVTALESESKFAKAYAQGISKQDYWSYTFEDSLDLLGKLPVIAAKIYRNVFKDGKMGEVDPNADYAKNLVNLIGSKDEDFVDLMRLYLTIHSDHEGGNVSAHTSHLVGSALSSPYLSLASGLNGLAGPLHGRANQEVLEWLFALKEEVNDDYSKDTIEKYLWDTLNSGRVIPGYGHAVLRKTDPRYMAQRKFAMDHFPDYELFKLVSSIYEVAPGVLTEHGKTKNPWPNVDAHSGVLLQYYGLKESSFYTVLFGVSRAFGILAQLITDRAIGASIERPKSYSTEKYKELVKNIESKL
row,Compound,"GFP fluorescence, higher = induction"
1,Cc1cc(/C=C2/SC(=S)N(c3cccc(Cl)c3)C2=O)c(C)n1-c1cccnc1,inactive
2,CS(=O)(=O)c1nc(-c2ccccc2)cc(C(F)(F)F)n1,inactive
3,COc1ccc(CCNC2=C(Cl)C(=O)N(CCc3ccccc3)C2=O)cc1OC,inactive
4,O=C1c2sc3nc4ccccc4n3c2C(=O)N1c1ccccc1Cl,inactive
5,COc1cccc2sc(Nc3nc(-c4ccccn4)cs3)nc12,inactive
6,O=C(O)c1ccc2c(c1)C(=O)/C(=C/c1ccccc1)C2=O,inactive
7,O=C1Nc2ccccc2/C1=C\C(=O)c1ccccc1,inactive
8,O=C(Nc1ccc(Cl)cc1Cl)c1cccc(N2C(=O)C=CC2=O)c1,inactive
9,Nc1ccc(Br)c2c1C(=O)c1ccccc1C2=O,inactive
10,O=C(OCC(=O)N1CCN(C(=O)c2ccco2)CC1)c1cc(-c2cccc(Br)c2)nc2ccccc12,inactive
11,Cc1[nH]c(-c2ccccn2)nc(=S)c1Cl,inactive
12,COc1ccc(N2C(=O)C(Cl)=C(Nc3c(C)n(C)n(-c4ccccc4)c3=O)C2=O)cc1,inactive
13,COc1ccc(/C=C/C(=O)C2C(=O)C=C(C)OC2=O)cc1O (stereo not given),inactive
14,Cc1[nH]n(-c2ncc(-c3ccccc3)s2)c(=O)c1C(c1ccc(Cl)cc1)C(C#N)C#N (stereo not given),inactive
15,Cc1c(C(=O)Nc2nc(-c3ccccn3)cs2)oc2ccccc12,inactive
16,O=C1NC(=S)NC(=O)C1=Cc1ccc2c(c1)CCN2CCCCl,inactive
17,Cc1cc(O)c(C(=O)/C=C/c2ccc(Cl)cc2)c(=O)o1,inactive
18,Cc1c(NC2=C(Cl)C(=O)N(c3ccccc3Cl)C2=O)c(=O)n(-c2ccccc2)n1C,inactive
19,CC(C)C(=O)NC(c1cccs1)c1cc([N+](=O)[O-])c2cccnc2c1O (stereo not given),inactive
20,COc1cc(CNC(=O)CCCCCCC(C)C)ccc1O,inactive
21,Cc1ccc(NC(=O)c2ccc(Cl)c(N3C(=O)C=CC3=O)c2)cc1,inactive
22,COc1cc(NC(=O)c2ccc(C)cc2)ccc1NC(=O)c1cc2ccccc2o1,inactive
23,O=S(=O)(/N=C(\Sc1ccc(Cl)cc1)c1ccccc1)c1ccccc1,inactive

row,Compound,"GFP fluorescence, higher = induction"
1,COc1ccc(N2CCN(C(=O)c3ccccc3)CC2)c([N+](=O)[O-])c1,inactive
2,Cc1c(C)c2ccc(Oc3ccc([N+](=O)[O-])cc3C(F)(F)F)c(C)c2oc1=O,inactive
3,Cc1ccc(NC(=O)c2cc(N3C(=O)C=CC3=O)ccc2Cl)cc1C,inactive
4,Cc1ccc(S(=O)(=O)/N=C(\Sc2ccccc2)c2ccccc2)cc1,inactive
5,CCOc1ccc(N/N=C(/C#N)C(N)=O)cc1,inactive
6,NC(=O)COc1ccc(C(=O)/C=C2/C(=O)Nc3ccccc32)cc1,inactive
7,O=C(/C=C/c1cccc([N+](=O)[O-])c1)c1ccc([N+](=O)[O-])o1,inactive
8,Cc1ccc(NC(=O)CCc2ccccc2)cc1S(=O)(=O)N1CCOCC1,inactive
9,COc1ccc(-c2cc3nc4n(c(=O)c3s2)CCC4)cc1,inactive
10,Cc1ccc(NN2C(=O)C=C(c3ccc(Cl)cc3)C2=O)cc1,inactive
11,CC(=O)N(\C=C/C=C/C=C1\Sc2ccccc2C1=O)c1ccccc1,inactive
12,CCC(=O)Nc1ccc(NC(=O)c2cc3ccccc3o2)cc1,inactive
13,O=C(NC(=S)NNC(=O)c1ccc(Cl)cc1Cl)c1cccnc1,inactive
14,CC1=C(C)/C(=N\OS(=O)(=O)c2ccc(C)cc2)C=CC1=O,inactive
15,COc1ccc(N=Cc2nc(-c3ccccc3)oc2OC(C)=O)cc1,inactive
16,Cc1ccc(C(=O)Oc2oc(-c3ccco3)nc2C=Nc2ccc(Cl)cc2)cc1,inactive
17,COc1ccc(N2C(=O)C(Cl)=C(Oc3cccc(OC)c3)C2=O)cc1,inactive
18,Oc1c(I)cc(Cl)c2cccnc12,inactive
19,COc1ccc(NC(=O)/C(C#N)=C/c2ncc([N+](=O)[O-])n2C)c(OC)c1,inactive
20,CCOc1ccc(N2C(=O)/C(=C\c3cccs3)C(=O)NC2=S)cc1,inactive
21,Cc1ccc(S(=O)(=O)c2ccc([N+](=O)[O-])cn2)cc1,inactive
22,O=c1c2cc(Cl)ccc2nc(-c2ccc([N+](=O)[O-])cc2)n1O,inactive
23,c1ccc(-c2csc(Nc3cccnc3)n2)nc1,inactive

row,Compound,"GFP fluorescence, higher = induction"
1,O=[N+]([O-])c1cc(F)c2cccnc2c1O,inactive
2,Cc1cc(C)c(S(=O)(=O)N2CCC(C(=O)NCc3ccc(Cl)cc3Cl)CC2)c(C)c1,inactive
3,COc1ccc(C2=CC(=O)N(Nc3ccccc3)C2=O)cc1,inactive
4,Cc1cccc(C(=O)NC(=S)NNC(=O)Cc2ccccc2)c1,inactive
5,O=C(c1ccc(C(=O)N2CCCc3ccccc32)s1)N1CCCc2ccccc21,inactive
6,Oc1cc(-c2ccc(N3CCCCC3)nc2)cc2cccnc12,inactive
7,Cc1cc(O)c(C(=O)/C=C/c2c(F)c(F)c(F)c(F)c2F)c(=O)o1,inactive
8,CCN(CC(=O)Nc1cc(S(=O)(=O)N2CCOCC2)ccc1Cl)Cc1ccccc1,inactive
9,Cc1ccc(C(CC(=O)O)NC(=O)c2ccc(S(=O)(=O)N3CC(C)OC(C)C3)cc2)cc1 (stereo not given),inactive
10,COc1cccc2c(=O)c(C(=O)NCc3cccs3)c[nH]c12,inactive
11,CCC(=O)Oc1oc(-c2ccccc2)nc1C=Nc1ccc(C)cc1,inactive
12,O=C(C#Cc1ccccc1)c1cccc([N+](=O)[O-])c1,inactive
13,O=C(Nc1nnc(-c2ccc(F)cc2)o1)c1cccc([N+](=O)[O-])c1,inactive
14,O=C(c1ccc([N+](=O)[O-])o1)N1CCN(c2nc3c(F)cc(F)cc3s2)CC1,inactive
15,COc1cc(C=C2C(=O)c3ccccc3C2=O)cc(OC)c1,inactive
16,CC(c1ccccc1)N1C(=O)/C(=C/c2ccncc2)SC1=S (stereo not given),inactive
17,O=C(Oc1c(Cl)cc(Cl)c2cccnc12)c1cccc([N+](=O)[O-])c1,inactive
18,O=C1C(=O)c2ccccc2-c2ccccc21,inactive
19,O=C1N(c2ccccc2C(F)(F)F)O[C@@]1(c1ccccc1)C1CCCCC1,inactive
20,O=C(Nc1nc(-c2ccccn2)cs1)c1cc2ccccc2o1,inactive
21,COc1ccc([C@@]2(C(C)C)ON(c3ccccc3C(F)(F)F)C2=O)cc1,inactive

# Same assay, conditions: S. cerevisiae CIT2-GFP strain, flow cytometry fluorescence, 3 h
row,Compound,pEC50
1,Cc1ccc(/C(N)=N/OC(=O)c2ccc(F)cc2)cc1,5.42
2,N/C(Cc1ccc(Cl)c(Cl)c1)=N\OC(=O)c1cccs1,4.99
3,Cc1ccc(O)c(N=Nc2nccs2)c1,4.95
